Like-named read-outs stand apart in the source and are kept apart here.
Tests used:
[1] = footnote of Table 2, cited from earlier work
[2] = solubility of HDTC in alcohols; assay type: physicochemical; details: alcohols (methanol, ethanol and isopropanol)
Experimental: The HDTC may be made by any of the methods known to those in the art. One relatively simple method for producing HDTC in quantitative yields is to react carbon disulfide with hydrazine in a molar ratio of 1:2 in an alcohol at 0°-30° C. Appropriate alcohols include methanol, ethanol and isopropanol. […] If hydrazine hydrate is used to produce the HDTC, the water present in the alcohol upon completion of the reaction may be removed by distillation.

solubility in alcohols [2]	Structure (SMILES)	pKb ([1]; pKb)	pKb ([1]; second printed pKb)
–	C1CN2CCN1CC2 [DABCO, diazabicyclooctane]	3.0	8.7
–	CN(C)c1ccncc1 [DMAP, dimethylaminopyridine]	4.3	–
virtually insoluble	NNC(=S)S [HDTC, Hydrazinium-dithiocarbazinate]	–	–
–	CCN(CC)CC [TEA, triethylamine]	3.35	–

Reference: patent publication US4946995A, “Process for the production of thiocarbohydrazide” (Mobay Corporation, priority 1989, dated 1990)
